Results taken from publication PMC9611471 (Pharmaceutics, 2022).
Entries after “also recorded” stand apart in the source; their conditions may differ.

Assays:
[1] = tested on: A549 cells; assay: SK1 and SK2 protein (Western blotting) and mRNA (qRT-PCR) levels; assay type: cell-based, human; conditions: 5 and 10 μM, 24 h
Description: (§1) Western blotting measured changes in apoptosis-related proteins (PARP, BAX, BCL-2, Caspase-3). A549 cells (1 × 10^6 cells per well in 6-well plates) were incubated for 24 h. Cells were treated with concentrations of the compounds and incubated for 24 h. Then, cells were dissolved on ice for two hours with a lysis buffer containing a mixture of protease and phosphatase inhibitors. The lysate was centrifuged at 12,000× g for 15 min at 4 °C, and the supernatant was collected. Protein concentrations were measured using a bicinchoninic acid protein assay kit. Total protein was separated by 8–10% sodium dodecyl sulfate–polyacrylamide gel electrophoresis (SDS-PAGE) and transferred onto polyvinylidene fluoride (PVDF) membranes. After being blocked with 5% skim milk, membranes were probed overnight at 4 °C with primary antibodies against SK1, SK2, PARP, BAX, Bcl-2, Caspase-3, and β-actin. Then, the membranes were incubated with subsequent secondary antibodies at room temperature. Then, the protein expressions were measured by Amersham Imager 680 (GE Healthcare, Leiden, WZ, The Netherlands).
RNAs were isolated using the Trizol/chloroform reagent (Invitrogen, Waltham, MA, USA). […] For quantitative analysis of various genes, qRT-PCR was performed using the Bio-Rad CFX384 Touch Real-time PCR detection system (Bio-Rad, Hercules, CA, USA) with SYBR Premix Ex Taq (Takara Bio, Shiga, Japan) for 40 cycles.

[2] = tested on: A549 cells; assay: Levels of sphingosine, ceramide and S1P (ELISA); assay type: cell-based, human; conditions: 5 and 10 μM
Description: After seeding 1 × 10^6 cells/well into a 6-well plate and incubating for 24 h, the synthetic compounds were treated by concentration. Then, cells were collected and freezing and thawing were repeated three to five times, and centrifuged supernatant was used for testing. The levels of sphingosine, ceramide, and S1P were measured according to the proposed manual using each ELISA kit (Mybiosource, Inc., San Diego, CA, USA).

[3] = tested on: A549 cells; assay: Mitochondrial membrane potential measurement (JC-10); assay type: cell-based, human; conditions: 10 μM, 24 h
Description: To access the mechanism of cell death, Mitochondrial Membrane Potential (MMP) was performed using JC-10 cationic dye. […] Cells were collected, and 20 μM JC-10 dye prepared in HBSS solution (0.14 M NaCl, 0.005 M KCl, 0.001 M CaCl2, 0.005 M MgSO4-7H2O, 0.0004 M MgSO4-6H2O, 0.0003 M Na2HPO4-2H2O, 0.0004 M KH2PO4, 0.006 M D-glucose, 0.004 M NaHCO3, 0.002 M HEPES, and 0.02% Pluronic® F-127) was added to the cell for 30 min and mixed. The samples were protected from light and measured by using the MACS Quant Analyzer 10 Flow cytometer.

[4] = tested on: A549 cells; assay: Western blotting of apoptosis-related proteins; assay type: cell-based, human; conditions: 5 and 10 μM, 24 h
Description: as §1

[5] = In vitro metabolic stability, rat liver microsomes; assay type: in vitro ADME; conditions: pooled liver microsomes, NADPH, 37 °C, 0 and 30 min
[6] = In vitro metabolic stability, mouse liver microsomes; assay type: in vitro ADME; conditions: pooled liver microsomes, NADPH, 37 °C, 0 and 30 min
[7] = tested on: A549 and H1299 cells; assay: Cell proliferation / viability assay (EZ-CYTOX)

Cc1cc(CN(Cc2cc(C)cc(CS(=O)(=O)c3ccccc3)c2)c2ccc(CCN3CCC(CO)CC3)cc2)cc(CS(=O)(=O)c2ccccc2)c1 [Compound 4, (1-(4-(Bis(3-methyl-5-((phenylsulfonyl)methyl)benzyl)amino)phenethyl)piperidin-4-yl)methanol]
expression of proteins and mRNAs of SK1 and SK2 [1]: did not affect | S1P levels [2]: reduced; also recorded: inhibited S1P at a level similar to that of PF-543 | ceramide levels [2]: increased | sphingosine levels [2]: slightly lower sphingosine expression than PF-543 | change in mitochondrial membrane potential (MMP), JC-10 [3]: significantly increased compared to that after treatment with PF-543 | levels of PARP, Caspase-3 and cleaved PARP [4]: levels of PARP and Caspase-3 were decreased and cleavage of PARP was increased | MS RLM [5]: 22.9 | MS MLM [6]: 38.5 | cytotoxic effects compared with FTY720 ([7]; 20 and 40 μM, A549 and H1299 cells): cytotoxic effects similar to those of FTY720 | IC50 ([7]; Homo sapiens, 24 h, read-out: IC50 (cytotoxic effect)): 7.75 µM
